Experimental data published in patent publication US20200369728A1, “PEPTIDOMIMETIC MACROCYCLES AND USES THEREOF” (Aileron Therapeutics, Inc., priority 2015, published 2020).
Bridge positions count the residues as written; N and C are the ends. Square brackets hold non-standard residues; d marks the D form. Peptide text beside a SMILES is read from it. R8 = C=CCCCCCC[C@@](C)(N)C(=O)O; S5 = C=CCCC[C@](C)(N)C(=O)O

Legend:
[1] = tested on: Caspase 3; assay: Caspase 3 detection assay in SJSA1 cells; format: cell-based; conditions: SJSA1, 48 h, Caspase 3 activation over DMSO-treated cells
[2] = tested on: SJSA-1 cells; assay: Cell lysis by peptidomimetic macrocycles (LDH release); format: cell-based; conditions: SJSA-1, 1 h
Outline: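 Membrane lysis measured as supernatant LDH after a 1 h, 37 °C exposure of SJSA-1 cells, held in RPMI with 1% FBS, to macrocycles at final 6.25-50 μM with 0.5% DMSO. Lytic references were 10 μM melittin and 1% Triton X-100; DMSO alone served as non-lytic control.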

[3] = tested on: RKO; assay: Cell viability assay (MTT), RKO; conditions: read-out: RKO EC50 (72 h)

| SMILES | caspase 0.3 μM [1] | caspase 3 μM [1] | caspase 10 μM [1] | caspase 30 μM [1] | 6.25 μM % Lysed cells (1 h LDH) [2] | 25 μM % Lysed cells (1 h LDH) [2] | 50 μM % Lysed cells (1 h LDH) [2] | EC50 [3] | caspase 1 μM [1] |
| --- | --- | --- | --- | --- | --- | --- | --- | --- | --- |
| CC(=O)N[C@@H](CC(C)C)C(=O)N[C@H](C(=O)N[C@@H](Cc1ccccc1)C(=O)N[C@]1(C)CCCCCCC=CCCC[C@@](C)(C(=O)N[C@@H](CO)C(=O)N[C@@H](Cc2c[nH]c3ccccc23)C(=O)N[C@@H](C)C(N)=O)NC(=O)[C@H](CC(C)C)NC(=O)[C@H](CCC(N)=O)NC(=O)[C@H](C)NC(=O)[C@H](Cc2c[nH]c3ccccc23)NC(=O)[C@H](Cc2ccc(O)cc2)NC(=O)[C@H](C)NC1=O)[C@@H](C)O (single isomer, unassigned) [compound 120] | 2 | 11 | 20 | 30 | 0% | 0% | 6% | < 5 µM |  |
| CC(=O)N[C@@H](CC(C)C)C(=O)N[C@H](C(=O)N[C@@H](Cc1ccccc1)C(=O)N[C@]1(C)CCCCCC/C=C/CCC[C@@](C)(C(=O)N[C@@H](C)C(=O)N[C@@H](C)C(=O)N[C@@H](C)C(=O)N[C@@H](C)C(=O)N[C@@H](C)C(=O)N[C@H](C)C(N)=O)NC(=O)[C@H](CC2CCC2)NC(=O)[C@H](CCC(N)=O)NC(=O)[C@H](CO)NC(=O)[C@H](Cc2c[nH]c3ccccc23)NC(=O)[C@H](Cc2ccc(O)cc2)NC(=O)[C@H](CCC(=O)O)NC1=O)[C@@H](C)O [compound 351] | 3 | 13 | 15 | 24 | 0% | 0% | 0% | 5 to 15 µM | 9 |
| CC(=O)N[C@@H](CC(C)C)C(=O)N[C@H](C(=O)N[C@@H](Cc1ccccc1)C(=O)N[C@]1(C)CCCCCCC=CCCC[C@@](C)(C(=O)N[C@@H](C)C(=O)N[C@@H](C)C(=O)N[C@@H](C)C(=O)N[C@@H](C)C(=O)N[C@@H](C)C(=O)N[C@@H](C)C(=O)N[C@H](C)C(N)=O)NC(=O)[C@H](CC(C)C)NC(=O)[C@H](CCC(N)=O)NC(=O)[C@H](C)NC(=O)[C@H](Cc2c[nH]c3ccccc23)NC(=O)[C@H](Cc2ccc(O)cc2)NC(=O)[C@H](C)NC1=O)[C@@H](C)O (single isomer, unassigned) [compound 316] | 6.5 | 21 | 32 | 32.5 | 0% | 0% | 1% | < 5 µM | 10.5 |
| CC(=O)N[C@@H](CC(C)C)C(=O)N[C@H](C(=O)N[C@@H](Cc1ccccc1)C(=O)N[C@]1(C)CCCCCCC=CCCC[C@@](C)(C(=O)N[C@@H](CO)C(=O)N[C@H](C(=O)N[C@@H](CO)C(N)=O)C(C)C)NC(=O)[C@H](CC(C)C)NC(=O)[C@H](CCC(N)=O)NC(=O)[C@H](C)NC(=O)[C@H](Cc2c[nH]c3ccccc23)NC(=O)[C@H](Cc2ccc(O)cc2)NC(=O)[C@H](C)NC1=O)[C@@H](C)O [compound 121] (Ac-LTF[R8]AYWAQL[S5]SVS-NH2; staple 4-11) | 1 | 5 | 19 | 30 | 1% | 1% | 7% | < 5 µM |  |
| CC(=O)N[C@@H](CC(C)C)C(=O)N[C@H](C(=O)N[C@@H](Cc1ccccc1)C(=O)N[C@]1(C)CCCCCCC=CCCC[C@@](C)(C(=O)N[C@@H](CO)C(=O)N[C@@H](C)C(=O)N[C@@H](C)C(N)=O)NC(=O)[C@H](CC(C)C)NC(=O)[C@H](C)NC(=O)[C@H](C(C)C)NC(=O)[C@H](Cc2c[nH]c3ccccc23)NC(=O)[C@H](Cc2ccc(O)cc2)NC(=O)[C@H](C)NC1=O)[C@@H](C)O [compound 196] (Ac-LTF[R8]AYWVAL[S5]SAA-NH2; staple 4-11) | 1 | 4 | 33 | 26 | 0% | 0% | 3% | < 5 µM |  |
| CC(=O)N[C@@H](CC(C)C)C(=O)N[C@H](C(=O)N[C@@H](Cc1ccccc1)C(=O)N[C@]1(C)CCCCCCC=CCCC[C@@](C)(C(=O)N[C@@H](CO)C(=O)N[C@@H](CC(C)C)C(=O)N[C@@H](C)C(N)=O)NC(=O)[C@H](CC(C)C)NC(=O)[C@H](CCC(N)=O)NC(=O)[C@H](C)NC(=O)[C@H](Cc2c[nH]c3ccccc23)NC(=O)[C@H](Cc2ccc(O)cc2)NC(=O)[C@H](C)NC1=O)[C@@H](C)O (single isomer, unassigned) [compound 118] | 1 | 2 | 18 | 27 | 4% | 2% | 4% | < 5 µM |  |
| CC(=O)N[C@@H](CC(C)C)C(=O)N[C@H](C(=O)N[C@@H](Cc1ccc(F)c(F)c1)C(=O)N[C@]1(C)CCCCCCC=CCCC[C@@](C)(C(=O)N[C@@H](CO)C(=O)N[C@@H](C)C(=O)N[C@@H](C)C(N)=O)NC(=O)[C@H](CC(C)C)NC(=O)[C@H](CCC(N)=O)NC(=O)[C@H](C)NC(=O)[C@H](Cc2c[nH]c3ccccc23)NC(=O)[C@H](Cc2ccc(O)cc2)NC(=O)[C@H](CCC(=O)O)NC1=O)[C@@H](C)O (single isomer, unassigned) [compound 158] | 1 | 1.67 | 5 | 16.33 | 0% | −2% |  | > 30 µM |  |
| CC(=O)N[C@@H](CCC(=O)O)C(=O)N[C@H](C(=O)N[C@@H](Cc1ccccc1)C(=O)N[C@]1(C)CCCCCCC=CCCC[C@@](C)(C(=O)N[C@@H](CO)C(=O)N[C@H](C(=O)N[C@@H](C)C(N)=O)C(C)C)NC(=O)[C@H](CC(C)C)NC(=O)[C@H](CCC(N)=O)NC(=O)[C@H](C)NC(=O)[C@H](Cc2c[nH]c3ccccc23)NC(=O)[C@H](Cc2ccc(O)cc2)NC(=O)[C@H](C(C)C)NC1=O)[C@@H](C)O [compound 126] (Ac-ETF[R8]VYWAQL[S5]SVA-NH2; staple 4-11) | 1 | 1 | 6 | 30 | 1% | 1% | 1% | > 30 µM |  |
| CC(=O)N[C@@H](C)C(=O)N[C@@H](CC(C)C)C(=O)N[C@H](C(=O)N[C@@H](Cc1ccccc1)C(=O)N[C@]1(C)CCCCCCC=CCCC[C@@](C)(C(=O)N[C@@H](CO)C(=O)N[C@@H](C)C(=O)N[C@@H](C)C(=O)N[C@@H](C)C(=O)N[C@H](C)C(N)=O)NC(=O)[C@H](CC2CCC2)NC(=O)[C@H](CCC(N)=O)NC(=O)[C@H](C)NC(=O)[C@H](Cc2c[nH]c3ccccc23)NC(=O)[C@H](Cc2ccc(O)cc2)NC(=O)[C@H](CCC(=O)O)NC1=O)[C@@H](C)O (single isomer, unassigned) [compound 357] | 2 | 11 | 15 | 23 | 0% | 0% | 0% | < 5 µM | 7 |
| CC(=O)N[C@@H](CC(C)C)C(=O)N[C@H](C(=O)N[C@@H](Cc1ccccc1)C(=O)N[C@]1(C)CCCCCCC=CCCC[C@@](C)(C(=O)N[C@@H](C)C(=O)N[C@@H](C)C(=O)N[C@@H](Cc2ccccc2)C(=O)N[C@H](C)C(N)=O)NC(=O)[C@H](CC(C)C)NC(=O)[C@H](CCC(N)=O)NC(=O)[C@H](C)NC(=O)[C@H](Cc2c[nH]c3ccccc23)NC(=O)[C@H](Cc2ccc(O)cc2)NC(=O)[C@H](CCC(=O)O)NC1=O)[C@@H](C)O (single isomer, unassigned) [compound 219] | 1 | 5 | 17 | 34 | 0% | −1% | 2% | 5 to 15 µM |  |
| CC(=O)N[C@@H](CCC(=O)O)C(=O)N[C@H](C(=O)N[C@@H](Cc1ccccc1)C(=O)N[C@]1(C)CCCCCCC=CCCC[C@@](C)(C(=O)N[C@@H](CO)C(=O)N[C@@H](C)C(=O)N[C@@H](C)C(N)=O)NC(=O)[C@H](CC(C)C)NC(=O)[C@H](CCC(N)=O)NC(=O)[C@H](C)NC(=O)[C@H](Cc2c[nH]c3ccccc23)NC(=O)[C@H](Cc2ccc(O)cc2)NC(=O)[C@H](C(C)C)NC1=O)[C@@H](C)O [compound 125] (Ac-ETF[R8]VYWAQL[S5]SAA-NH2; staple 4-11) | 1 | 3 | 9 | 29 | 0% | 0% | 2% | 5 to 15 µM |  |
| CC(=O)N[C@@H](C)C(=O)N[C@@H](C)C(=O)N[C@@H](CC(C)C)C(=O)N[C@H](C(=O)N[C@@H](Cc1ccccc1)C(=O)N[C@]1(C)CCCCCCC=CCCC[C@@](C)(C(=O)N[C@@H](CO)C(=O)N[C@@H](C)C(=O)N[C@@H](C)C(=O)N[C@@H](C)C(=O)N[C@H](C)C(N)=O)NC(=O)[C@H](CC2CCC2)NC(=O)[C@H](CCC(N)=O)NC(=O)[C@H](C)NC(=O)[C@H](Cc2c[nH]c3ccccc23)NC(=O)[C@H](Cc2ccc(O)cc2)NC(=O)[C@H](CCC(=O)O)NC1=O)[C@@H](C)O (single isomer, unassigned) [compound 359] | 3 | 11 | 13 | 23 | 0% | 0% | 0% | 15 to 30 µM | 9 |
